Source: patent US8420592B2, “Methods of treatment using single doses of oritavancin” (The Medicines Company, priority 2008, dated 2013)

System: cSSSI due to gram-positive pathogens
Assay: Phase 2 randomized double-blind study of three oritavancin dose regimens in cSSSI: clinical response at test-of-cure
Format: in vivo, human
Settings: for Cure (cure and improvement), % of patients: TOC
Protocol: A phase 2, multi-center, randomized, double-blind, parallel, active-comparator study in which three dose regimens of oritavancin were explored as a treatment for cSSSI due to gram-positive pathogens was conducted using: a daily dose (200 mg) administered for three to seven days, a single dose (1200 mg), and an infrequent dose (800 mg dose with option for an additional 400 mg on Day 5).
Patients were randomized through an interactive voice response system in a 1:1:1 ratio to receive either 1) oritavancin […] daily dose: 200 mg IV daily for 3 to 7 days as determined by the investigator based on clinical criteria, 2) oritavancin single dose: 1200 mg oritavancin IV on Day 1, or; 3) oritavancin infrequent dose: 800 mg IV on Day 1 with optional 400 mg IV on Day 5 as determined by investigator based on clinical criteria. During randomization patients were stratified by disease categories of wound infection, major abscess, and cellulitis. Placebo IV (5% dextrose in water) was given to maintain the blind.
Analyses were performed on four patient populations: intent-to-treat (ITT), modified intent-to-treat (MITT), clinically evaluable (CE) and microbiologically evaluable (ME). The ITT population included patients who were randomized to treatment and received any amount of study medication. Two patients who were potentially unblinded were excluded from the ITT population for all efficacy analyses. The MITT population included all ITT patients with a gram-positive pathogen isolated at baseline.
The primary efficacy endpoint was the clinical response in the CE population at TOC, which occurred 20 to 28 days after study enrollment on Day 1. Clinical response was determined by the investigator as part of the end-of-therapy, TOC, and late follow-up procedures by assessing signs and symptoms including fever, pain, tenderness, erythema, induration, edema, purulent drainage, eschar, and devitalized tissue. A clinical response of cure, improvement, failure, or indeterminate was assigned at end-of-therapy and TOC by the investigator based on clinical signs and symptoms. At late follow-up, the investigator could assign the clinical response of relapse in addition to cure, improvement, or indeterminate. Only patients with a clinical response of cure or improvement at TOC were assessed for clinical response at late follow-up.
Cure was defined as resolution of purulent drainage, pain, edema, fever, erythema, tenderness, and induration. Serous drainage or aspirate and/or granulation tissue could be present. Improvement was defined as resolution of purulent drainage and, in the case of cellulitis, cessation of fever and pain. Residual erythema, edema, pain (in the case of wound or abscess), tenderness, and/or induration could be present as could serous drainage, granulation tissue, eschar, and/or devitalized tissue. Failure included any of the following: presence of purulent drainage (or aspirate) and/or fever; the unanticipated need for abscess drainage or removal of sutures (for treatment of infection)>48 hours after initiation of study therapy; or treatment with nonstudy systemic antibiotic having activity against gram-positive pathogen(s) for the primary infection site or use of topical antibiotics at the site of primary infection 24 hours or more after initiation of study medication therapy.
The primary efficacy endpoint was clinical response (either cure or improvement versus failure) at TOC in the CE population. The primary efficacy analyses were a comparison of the proportions of CE patients with a clinical response of cure (defined as investigator assessment of cure or improvement) in the daily dose group compared to, 1) the single dose group and 2) the infrequent dose group. Adjusted estimates for the differences in response rates and the corresponding confidence intervals (CI) were constructed using the Mantel-Haenszel method stratified by disease category.

[1] = Clinically evaluable, cellulitis
[2] = Clinically evaluable, major abscess
[3] = Clinically evaluable, Mantel-Haenszel stratified by disease
[4] = Intent to treat, Mantel-Haenszel stratified by disease
[5] = Microbiologically evaluable, Mantel-Haenszel stratified by disease
[6] = Modified intent-to-treat, Mantel-Haenszel stratified by disease

CN[C@H](CC(C)C)C(=O)N[C@H]1C(=O)N[C@@H](CC(N)=O)C(=O)N[C@H]2C(=O)N[C@H]3C(=O)N[C@H](C(=O)N[C@H](C(=O)O)c4cc(O)cc(O)c4-c4cc3ccc4O)[C@H](O[C@H]3C[C@](C)(N)[C@@H](O)[C@H](C)O3)c3ccc(c(Cl)c3)Oc3cc2cc(c3O[C@@H]2O[C@H](CO)[C@@H](O)[C@H](O)[C@H]2O[C@H]2C[C@](C)(NCc3ccc(-c4ccc(Cl)cc4)cc3)[C@@H](O)[C@H](C)O2)Oc2ccc(cc2Cl)[C@H]1O [Oritavancin, N-(4-(4-chlorophenyl)benzyl)A82846B]
Estimated Difference in cure rate 800 mg − 200 mg [1]: 14.4% | Estimated Difference in cure rate 1200 mg − 200 mg [1]: 29.2% | Cure (cure and improvement), % of patients (Clinically evaluable, cellulitis, 200 mg IV daily for 3 to 7 days): 58.3% | Cure (cure and improvement), % of patients (Clinically evaluable, cellulitis, 800 mg IV Day 1 with optional 400 mg Day 5): 72.7% | Cure (cure and improvement), % of patients (Clinically evaluable, cellulitis, single dose 1200 mg IV Day 1): 87.5% | Estimated Difference in cure rate 800 mg − 200 mg [2]: −4.8% | Estimated Difference in cure rate 1200 mg − 200 mg [2]: −2.3% | Cure (cure and improvement), % of patients (Clinically evaluable, major abscess, 200 mg IV daily for 3 to 7 days): 92.3% | Cure (cure and improvement), % of patients (Clinically evaluable, major abscess, 800 mg IV Day 1 with optional 400 mg Day 5): 87.5% | Cure (cure and improvement), % of patients (Clinically evaluable, major abscess, single dose 1200 mg IV Day 1): 90.0% | Estimated Difference in cure rate 800 mg − 200 mg (Clinically evaluable, wound): 6.6% | Estimated Difference in cure rate 1200 mg − 200 mg (Clinically evaluable, wound): 1.3% | Cure (cure and improvement), % of patients (Clinically evaluable, wound, 200 mg IV daily for 3 to 7 days): 65.4% | Cure (cure and improvement), % of patients (Clinically evaluable, wound, 800 mg IV Day 1 with optional 400 mg Day 5): 72.0% | Cure (cure and improvement), % of patients (Clinically evaluable, wound, single dose 1200 mg IV Day 1): 66.7% | Estimated Difference in cure rate 800 mg − 200 mg [3]: 5.2% | Estimated Difference in cure rate 1200 mg − 200 mg [3]: 8.6% | Cure (cure and improvement), % of patients (Clinically evaluable, 200 mg IV daily for 3 to 7 days): 72.4% | Cure (cure and improvement), % of patients (Clinically evaluable, 800 mg IV Day 1 with optional 400 mg Day 5): 77.5% | Cure (cure and improvement), % of patients (Clinically evaluable, single dose 1200 mg IV Day 1): 81.5% | Cure rate (Clinically evaluable, infrequent dose group, 800 mg Day 1 plus optional 400 mg Day 5): 77.1% | Cure rate (Clinically evaluable, infrequent dose group, only 800 mg on Day 1): 78.3% | Estimated Difference in cure rate 800 mg − 200 mg [4]: 5.1% | Estimated Difference in cure rate 1200 mg − 200 mg [4]: 8.7% | Cure (cure and improvement), % of patients (Intent to treat, 200 mg IV daily for 3 to 7 days): 72.4% | Cure (cure and improvement), % of patients (Intent to treat, 800 mg IV Day 1 with optional 400 mg Day 5): 78.2% | Cure (cure and improvement), % of patients (Intent to treat, single dose 1200 mg IV Day 1): 81.8% | Estimated Difference in cure rate 800 mg − 200 mg [5]: 11.0% | Estimated Difference in cure rate 1200 mg − 200 mg [5]: 8.5% | Cure (cure and improvement), % of patients (Microbiologically evaluable, 200 mg IV daily for 3 to 7 days): 69.1% | Cure (cure and improvement), % of patients (Microbiologically evaluable, 800 mg IV Day 1 with optional 400 mg Day 5): 81.3% | Cure (cure and improvement), % of patients (Microbiologically evaluable, single dose 1200 mg IV Day 1): 79.3% | Estimated Difference in cure rate 800 mg − 200 mg [6]: 11.1% | Estimated Difference in cure rate 1200 mg − 200 mg [6]: 10.1% | Cure (cure and improvement), % of patients (Modified intent-to-treat, 200 mg IV daily for 3 to 7 days): 68.8% | Cure (cure and improvement), % of patients (Modified intent-to-treat, 800 mg IV Day 1 with optional 400 mg Day 5): 80.6% | Cure (cure and improvement), % of patients (Modified intent-to-treat, single dose 1200 mg IV Day 1): 80.3% | Patients with cellulitis who failed having unplanned surgical procedures or interventions (daily dose group (200 mg)): 29% | Relapse in CE patients (daily dose group, late follow-up): no patients | Patients with cellulitis who failed having unplanned surgical procedures or interventions (infrequent dose group (800 mg)): 7% | Relapse rate in CE patients (infrequent dose group, late follow-up): 3.7% | Patients with cellulitis who failed having unplanned surgical procedures or interventions (single dose group (1200 mg), n/total): 0/9 | Relapse rate in CE patients (single dose group, late follow-up): 1.6%
